What was measured:
[1] = molecular target: HRAS wild-type protein (Homo sapiens, UniProt P01112); assay: Binding to HRAS by surface plasmon resonance (SPR), KD and KD ratio to KRAS; settings: ratio of KD with respect to HRAS wild-type protein to KD with respect to KRAS
In short: (§1)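 GDP-loaded biotinylated Avi-tag RAS proteins (E. coli-expressed) captured on a Biotin CAPture chip at ~100–300 RU; single-cycle kinetics at 30°C, 100 µL/min, 75 s injections of rising compound concentrations. HBS pH 7.4 running buffer with 1 mM DTT, 10 mM MgCl2, 10 µM GDP, 4% DMSO. KD from 1:1 binding fit.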

[2] = system: human lung cancer strain NCI-H441; assay: NCI-H441 cell proliferation inhibitory activity (CellTiter-Glo, 4 days); assay type: cell-based; settings: 50% proliferation inhibitory concentration, four days, read-out: NCl-H441 IC50
In short: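 Readout: […] after the ATP-based reagent. Compound: serial dilutions in dimethyl sulfoxide.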

[3] = molecular target: GDP-bound KRAS wild-type protein (Homo sapiens, UniProt P01116); assay: Binding to KRAS by surface plasmon resonance (SPR), dissociation constant KD; settings: Single Cycle Kinetics, 1:1 binding model
In short: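 Each cycle, GDP-bound biotin-Avi RAS was captured (~100–300 RU), compound concentrations were injected low to high for 75 s each at 100 µL/min, then the chip was regenerated. Buffer: HBS pH 7.4, 10 mM MgCl2, 10 µM GDP, 1 mM DTT, 4% DMSO; 30°C. KD from a 1:1 binding model.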

[4] = molecular target: GDP-bound NRAS wild-type protein (Homo sapiens, UniProt P01111); assay: Binding to NRAS by surface plasmon resonance (SPR), KD and KD ratio to KRAS; settings: ratio of KD with respect to GDP-bound NRAS wild-type protein to KD with respect to KRAS
In short: as §1

GDP-bound KRAS wild-type protein, sequence (P01116 1-188 isoform P01116-2): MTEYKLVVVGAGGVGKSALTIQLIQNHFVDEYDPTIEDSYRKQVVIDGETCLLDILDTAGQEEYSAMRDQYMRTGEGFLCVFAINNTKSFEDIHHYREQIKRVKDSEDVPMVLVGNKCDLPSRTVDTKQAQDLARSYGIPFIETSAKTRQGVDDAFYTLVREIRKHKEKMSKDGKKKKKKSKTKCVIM
HRAS wild-type protein, sequence (P01112 whole entry): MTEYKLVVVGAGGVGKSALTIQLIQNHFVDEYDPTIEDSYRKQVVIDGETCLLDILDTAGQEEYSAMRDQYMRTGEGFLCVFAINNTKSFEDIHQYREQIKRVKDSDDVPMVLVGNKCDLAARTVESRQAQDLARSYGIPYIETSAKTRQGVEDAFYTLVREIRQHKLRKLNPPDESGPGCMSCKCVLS
GDP-bound NRAS wild-type protein, sequence (P01111 whole entry): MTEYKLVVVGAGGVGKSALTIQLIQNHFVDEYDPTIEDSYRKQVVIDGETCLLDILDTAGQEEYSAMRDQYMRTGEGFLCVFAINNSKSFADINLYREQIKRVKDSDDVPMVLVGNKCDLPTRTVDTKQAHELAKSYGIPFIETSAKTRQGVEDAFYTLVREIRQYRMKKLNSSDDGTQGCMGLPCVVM

With `CCO[C@@H]1C[C@H]2C(=O)NC3(CCCC3)C(=O)N(C)[C@@H](C(CC)CC)C(=O)N(C)[C@H](C(=O)N3CCCC3)CC(=O)N(C)[C@@H](C)C(=O)N[C@@H]([C@@H](C)CC)C(=O)N(C)CC(=O)N(C)[C@H]3C/C=C\CCN(C3=O)[C@@H](CC3CCCCC3)C(=O)N(C)CC(=O)N[C@@H](CCc3cc(F)c(C(F)(F)F)c(F)c3)C(=O)N2C1` [PP1435] the “HRAS /KRAS” value [1] was “A (a compound having 10 or more and less than 20 is denoted as A)”, the IC50 [2] was 178 nM and the Kd [3] was 1.1 nM. For the same compound, the “NRAS /KRAS” value [4] was “A (a compound having 10 or more and less than 20 is denoted as A)”.
For `CCO[C@@H]1C[C@H]2C(=O)NC3(CCC3)C(=O)N(C)[C@@H](C(CC)CC)C(=O)N(C)[C@H](C(=O)N3CCCC3)CC(=O)N(C)[C@@H](C)C(=O)N[C@@H]([C@@H](C)CC)C(=O)N(C)CC(=O)N(C)[C@H]3C/C=C\CCN(C3=O)[C@@H](CC3CCC(F)(F)CC3)C(=O)N(C)CC(=O)N[C@@H](CCc3cc(F)c(C(F)(F)F)c(F)c3)C(=O)N2C1` [PP1436], the “HRAS /KRAS” value [1] was “A (a compound having 10 or more and less than 20 is denoted as A)”, the IC50 [2] was 47.4 nM and the Kd [3] was 0.29 nM. For the same compound, the “NRAS /KRAS” value [4] was “AA (a compound having 20 or more is denoted as AA)”.
`CCO[C@@H]1C[C@H]2C(=O)NC3(CCC3)C(=O)N(C)[C@@H](C(CC)CC)C(=O)N(C)[C@H](C(=O)N3CCCC3)CC(=O)N(C)[C@@H](COC)C(=O)N[C@@H]([C@@H](C)CC)C(=O)N(C)CC(=O)N(C)[C@H]3C/C=C\CCN(C3=O)[C@@H](CC3CCCCC3)C(=O)N(C)CC(=O)N[C@@H](CCc3cc(F)c(C(F)(F)F)c(F)c3)C(=O)N2C1` [PP1438] was tested, and the “HRAS /KRAS” value [1] was “A (a compound having 10 or more and less than 20 is denoted as A)”, the IC50 [2] was 89.4 nM and the Kd [3] was 0.55 nM. The “NRAS /KRAS” value [4] was “AA (a compound having 20 or more is denoted as AA)”.
With `CCO[C@@H]1C[C@H]2C(=O)NC3(CCC3)C(=O)N(C)[C@@H](C(CC)CC)C(=O)N(C)[C@H](C(=O)N3CCCC3)CC(=O)N(C)[C@@H](COC)C(=O)N[C@@H]([C@@H](C)CC)C(=O)N(C)CC(=O)N(C)[C@H]3C/C=C\CCN(C3=O)[C@@H](CC3CCC(F)(F)CC3)C(=O)N(C)CC(=O)N[C@@H](CCc3cc(F)c(C(F)(F)F)c(F)c3)C(=O)N2C1` [PP1440] the “HRAS /KRAS” value [1] was “A (a compound having 10 or more and less than 20 is denoted as A)”, the IC50 [2] was 69.7 nM and the Kd [3] was 0.35 nM. For the same compound, the “NRAS /KRAS” value [4] was “AA (a compound having 20 or more is denoted as AA)”.
In the case of `CCO[C@@H]1C[C@H]2C(=O)NC3(CCCC3)C(=O)N(C)[C@@H](C(CC)CC)C(=O)N(C)[C@H](C(=O)N3CCCC3)CC(=O)N(C)[C@@H](COC)C(=O)N[C@@H]([C@@H](C)CC)C(=O)N(C)CC(=O)N(C)[C@H]3C/C=C\CCN(C3=O)[C@@H](CC3CCC(F)(F)CC3)C(=O)N(C)CC(=O)N[C@@H](CCc3cc(F)c(C(F)(F)F)c(F)c3)C(=O)N2C1` [PP1441], the “HRAS /KRAS” value [1] is reported as “A (a compound having 10 or more and less than 20 is denoted as A)”, the IC50 [2] is reported as 87.6 nM and the Kd [3] is reported as 0.7 nM. For the same compound, the “NRAS /KRAS” value [4] was “A (a compound having 10 or more and less than 20 is denoted as A)”.
`CCO[C@@H]1C[C@H]2C(=O)NC3(CCC3)C(=O)N(C)[C@@H](C3CCCC3)C(=O)N(C)[C@H](C(=O)N3CCCC3)CC(=O)N(C)[C@@H](CC)C(=O)N[C@@H]([C@@H](C)CC)C(=O)N(C)CC(=O)N(C)[C@H]3C/C=C\CCN(C3=O)[C@@H](CC3CCC(F)(F)CC3)C(=O)N(C)CC(=O)N[C@@H](CCc3cc(F)c(C(F)(F)F)c(F)c3)C(=O)N2C1` [PP1442] was tested, and the “HRAS /KRAS” value [1] was “A (a compound having 10 or more and less than 20 is denoted as A)”, the IC50 [2] was 48.3 nM and the Kd [3] was 0.13 nM. The “NRAS /KRAS” value [4] was “A (a compound having 10 or more and less than 20 is denoted as A)”.
With `CCO[C@@H]1C[C@H]2C(=O)NC3(CCC3)C(=O)N(C)[C@@H](C3CCCC3)C(=O)N(C)[C@H](C(=O)N3CCCC3)CC(=O)N(C)[C@@H](CC)C(=O)N[C@@H]([C@@H](C)CC)C(=O)N(C)CC(=O)N(C)[C@H]3C/C=C\CCN(C3=O)[C@@H](CC3CCCCC3)C(=O)N(C)CC(=O)N[C@@H](CCc3cc(F)c(C(F)(F)F)c(F)c3)C(=O)N2C1` [PP1443] the “HRAS /KRAS” value [1] was “A (a compound having 10 or more and less than 20 is denoted as A)”, the IC50 [2] was 34.8 nM and the Kd [3] was 0.15 nM. The “NRAS /KRAS” value [4] was “AA (a compound having 20 or more is denoted as AA)”.

— patent publication EP4603105A1, “PHARMACEUTICAL COMPOSITION CONTAINING CYCLIC COMPOUND HAVING SELECTIVE KRAS INHIBITORY EFFECT AGAINST HRAS AND NRAS” (CHUGAI SEIYAKU KABUSHIKI KAISHA, priority 2022, dated 2024)
